Where a name gives a salt, the structure may show the parent alone.

Broadly, the IC50 is the midpoint of a concentration-inhibition curve.

The first assay relates to Plasmodium falciparum: 3D7 strain. The assay is described as follows: P. falciparum 3D7 asexual blood stage assay (SYBR green readout). Format: cell-based. The conditions noted are these: Plasmodium falciparum, 3D7, Erythrocyte, 72 h, P. falciparum 3D7 in human erythrocytes, 72 h incubation, SYBR green fluorescence. From the text: The compounds of the present invention are potent inhibitors of the growth and propagation of the Plasmodium falciparum parasite in human blood.
The assay used to measure the effect of test compounds on a bloodstream stage of Plasmodium falciparum: 3D7 strain employs SYBR green as the readout. This is a dye that binds to double stranded deoxyribonucleic acid (DNA) with a resulting increase in fluorescence, allowing detection of P. falciparum DNA in infected erythrocytes, and thereby providing a measure of parasite growth and propagation.
Erythrocytes (A+blood) were prepared for both parasite culture and assay by washing 4 times with incomplete media (15.9 g RPMI 1640 (25 mM HEPES, L-glutamine), 1 g NaHCO3, 2 g glucose, 400 μL gentacin (500 mg/mL), 2 mL hypoxanthine solution (13.6 g/L in 0.1M NaOH pH 7.3) in 1 litre of media). The cells were centrifuged at 1800 g for 5 minutes, before decanting the supernatant and re-suspending in fresh incomplete media. On the final wash, the cells were re-suspended in complete media (incomplete media with 5 g/L AlbumaxII), and centrifuged at 1800 g for 3 minutes. This cell sediment was treated as 100% haematocrit.
P. falciparum 3D7 was cultured in erythrocytes at 5% haematocrit in complete media at 37° C. (1% O2, 3% CO2, balance N2). Cultures were split on a weekly basis to achieve a 1% parasitaemia in erythrocites at 5% haematocrit in fresh media. Culture media is replaced by fresh media every other day (2 times during the week).
On day 1, test compounds were added to assay plates using Echo dispensing technology ([…] and 20 points titration). 50 nL of each compound dilution was added to 50 μL of culture (5% haematocrit, 0.5% parasitaemia) and incubated for 72 h at 37° C. (1% O2, 3% CO2, balance N2). Final concentrations of test compounds ranged from 50,000 nM to 15 nM, in […].
On day 4, 10 μL SYBR green (Invitrogen S7563 supplied as 10,000×concentrate in DMSO) pre-diluted to 3×concentrate with Lysis buffer (20 mM Tris pH 7.9, 5% EDTA, 0.16% w/v, 1.6% TX100 v/v) was added to the cultures and incubated in the dark, overnight, at room temperature.
On day 5, fluorescent signal was measured using a BioTek plate reader (excitation 485 nm, emission 528 nm). All data were processed using IDBS ActivityBase. Raw data were converted into percent inhibition through linear regression by setting the high inhibition control (mefloquine) as 100% and the no inhibition control (DMSO) as 0%. Quality control criteria for passing plates were as follows: Z′>0.5, S:B>3, % CV(no inhibition control)<15. The formula used to calculate Z′ is: […]
All EC50 curve fitting was undertaken using the following bi-phasic two site dose response using XLfit model 300 (IDBS):
where A=100 minus the top of the upper curve 1 and the bottom of lower curve; B=Hill slope; log(C)=IC50 concentration at lower site; log(D)=IC50 concentration at upper site; x=inhibitor concentration; and y=% inhibition.
Take `C[C@@H]1C[C@H](N2C(=N)N[C@](C)(c3cccc(-c4ccc(F)cc4F)c3Cl)CC2=O)CCN1C` (relative stereo) [Example 107, (6S)-6-[2-Chloro-3-(2,4-difluoro-phenyl)phenyl]-3-[(2R*,4R*)-1,2-dimethylpiperidin-4-yl]-2-imino-6-methylhexahydropyrimidin-4-one hydrochloride]: the IC50 amounted to 228 nM.

`C[C@H]1C[C@@H](N2C(=N)N[C@](C)(c3cccc(-c4ccccc4C(F)(F)F)c3Cl)CC2=O)CCO1` [Example 37, (6S)-6-{2-Chloro-3-[2-(trifluoro-methyl)phenyl]phenyl}-2-imino-6-methyl-3-[(2S,4S)-2-methyl-tetrahydropyran-4-yl]hexahydro-pyrimidin-4-one trifluoroacetic acid salt] gave an IC50 of 67 nM.

`C=C(c1ccccc1)n1cc(-c2cccc([C@]3(C)CC(=O)N([C@H]4CCO[C@@H](C)C4)C(=N)N3)c2Cl)nn1` [Example 121, (6S)-6-{2-Chloro-3-[1-(1-phenyl-vinyl)-1,2,3-triazol-4-yl]phenyl}-2-imino-6-methyl-3-[(2S,4S)-2-methyltetrahydropyran-4-yl]-hexahydropyrimidin-4-one trifluoroacetic acid salt] displayed an IC50 of 185 nM.

Consider `C[C@H]1C[C@@H](N2C(=N)N[C@](C)(c3cccc(-c4cn(Cc5cccnc5)nn4)c3Cl)CC2=O)CCO1` [Example 117, (6S)-6-{2-Chloro-3-[1-(pyridin-3-ylmethyl)-1,2,3-triazol-4-yl]-phenyl}-2-imino-6-methyl-3-[(2S,4S)-2-methyltetrahydropyran-4-yl]hexahydropyrimidin-4-one trifluoroacetic acid salt], for which half-maximal inhibition (IC50) was put at 371 nM.

`CCCCn1cc(-c2cccc([C@]3(C)CC(=O)N([C@H]4CCO[C@@H](C)C4)C(=N)N3)c2Cl)nn1` [Example 127, (6S)-6-[3-(1-Butyl-1,2,3-triazol-4-yl)-2-chlorophenyl]-2-imino-6-methyl-3-[(2S,4S)-2-methyl-tetrahydropyran-4-yl]hexahydro-pyrimidin-4-one trifluoroacetic acid salt] came in with an IC50 of 100 nM.

In turn, `C[C@@H]1C[C@H](N2C(=N)N[C@](C)(c3cccc(-c4cccc(Cl)c4)c3Cl)CC2=O)CC[C@H]1O` (relative stereo) [Example 104, (6S)-6-[2-Chloro-3-(3-chloro-phenyl)phenyl]-3-[(1S*,3S*,4S*)-4-hydroxy-3-methylcyclohexyl]-2-imino-6-methylhexahydro-pyrimidin-4-one hydrochloride] registered an IC50 of 4940 nM.

`C[C@H]1C[C@@H](N2C(=N)N[C@](C)(c3cccc(-c4cn(-c5cc(F)c(F)cc5F)nn4)c3Cl)CC2=O)CCO1` [Example 109, (6S)-6-{2-Chloro-3-[1-(2,4,5-trifluorophenyl)-1,2,3-triazol-4-yl]-phenyl}-2-imino-6-methyl-3-[(2S,4S)-2-methyltetrahydropyran-4-yl]hexahydropyrimidin-4-one hydrochloride] showed an IC50 of 171 nM.

`C[C@@H]1C[C@H](N2C(=N)N[C@](C)(c3cccc(-c4ccc(OC(F)(F)F)nc4)c3Cl)CC2=O)CCS1(=O)=O` (relative stereo) [Example 79, (6S)-6-{2-Chloro-3-[6-(trifluoro-methoxy)pyridin-3-yl]phenyl}-2-imino-6-methyl-3-[(2R*,4R*)-2-methyl-1,1-dioxothian-4-yl]-hexahydropyrimidin-4-one hydrochloride] came in with an IC50 of 107 nM.

Take `C[C@H]1C[C@@H](N2C(=N)N[C@](C)(c3cccc(-c4cccc(N5CCOCC5)c4)c3Cl)CC2=O)CCO1` [Example 29, (6S)-6-{2-Chloro-3-[3-(morpholin-4-yl)phenyl]phenyl}-2-imino-6-methyl-3-[(2S,4S)-2-methyl-tetrahydropyran-4-yl]hexahydro-pyrimidin-4-one trifluoroacetic acid salt]: the IC50 stood at 65 nM.

`C[C@@]1(c2cccc(-c3cnn(CC(F)(F)F)c3)c2Cl)CC(=O)N([C@H]2CCC(F)(F)[C@@H](O)C2)C(=N)N1` (relative stereo) [Example 85, (6S)-6-{2-Chloro-3-[1-(2,2,2-trifluoroethyl)pyrazol-4-yl]phenyl}-3-[(1S*,3S*)-4,4-difluoro-3-hydroxycyclohexyl]-2-imino-6-methylhexahydropyrimidin-4-one hydrochloride]: 2670 nM corresponded to half-maximal inhibition (IC50).

Compound `C[C@H]1C[C@@H](N2C(=N)N[C@](C)(c3cccc(-c4cccc(Cl)c4)c3Cl)CC2=O)CCO1` [Example 17, (6S)-6-[2-Chloro-3-(3-chloro-phenyl)phenyl]-2-imino-6-methyl-3-[(2S,4S)-2-methyltetrahydro-pyran-4-yl]hexahydropyrimidin-4-one trifluoroacetic acid salt] displayed an IC50 of 92 nM.

`C[C@H]1C[C@@H](N2C(=N)N[C@](C)(c3cccc(-c4cccnc4)c3Cl)CC2=O)CCO1` [Example 49, (6S)-6-[2-Chloro-3-(pyridin-3-yl)-phenyl]-2-imino-6-methyl-3-[(2S,4S)-2-methyltetrahydropyran-4-yl]hexahydropyrimidin-4-one trifluoroacetic acid salt]: the IC50 is 30 nM.

Take `C[C@H]1C[C@@H](N2C(=N)N[C@](C)(c3cccc(-c4ccc(C5CC5)nc4)c3Cl)CC2=O)CCO1` [Example 31, (6S)-6-[2-Chloro-3-(6-cyclopropyl-pyridin-3-yl)phenyl]-2-imino-6-methyl-3-[(2S,4S)-2-methyl-tetrahydropyran-4-yl]hexahydro-pyrimidin-4-one trifluoroacetic acid salt]: the IC50 was 180 nM.

With `C[C@@H]1C[C@H](N2C(=N)N[C@](C)(c3cccc(-c4cccc(Cl)c4)c3Cl)CC2=O)CCN1` (relative stereo) [Example 101, (6S)-6-[2-Chloro-3-(3-chloro-phenyl)phenyl]-2-imino-6-methyl-3-[(2R*,4R*)-2-methylpiperidin-4-yl]hexahydropyrimidin-4-one hydrochloride], the IC50 amounted to 392 nM.

`CO[C@H]1C[C@@H](N2C(=N)N[C@](C)(c3cccc(-c4ccc(N=S(C)(C)=O)cc4F)c3Cl)CC2=O)CCC1(F)F` (relative stereo) [Example 12, (6S)-6-[2-Chloro-3-(4-{[(dimethyl)-(oxo)-λ^6-sulfanylidene]amino}-2-fluorophenyl)phenyl]-3-[(1S*,3S*)-4,4-difluoro-3-methoxy-cyclohexyl]-2-imino-6-methyl-hexahydropyrimidin-4-one hydrochloride] had an IC50 of 359 nM.

`C[C@H]1C[C@@H](N2C(=N)N[C@](C)(c3cccc(-c4cccc5ccccc45)c3Cl)CC2=O)CCO1` [Example 35, (6S)-6-[2-Chloro-3-(naphth-1-yl)-phenyl]-2-imino-6-methyl-3-[(2S,4S)-2-methyltetrahydropyran-4-yl]hexahydropyrimidin-4-one trifluoroacetic acid salt]: the IC50 was found to be 355 nM.

`COCCn1cc(-c2cccc([C@]3(C)CC(=O)N([C@H]4CCO[C@@H](C)C4)C(=N)N3)c2Cl)nn1` [Example 123, (6S)-6-{2-Chloro-3-[1-(2-methoxy-ethyl)-1,2,3-triazol-4-yl]phenyl}-2-imino-6-methyl-3-[(2S,4S)-2-methyltetrahydropyran-4-yl]-hexahydropyrimidin-4-one trifluoroacetic acid salt] came in with an IC50 of 542 nM.

Still in this assay, the particulars now being: Plasmodium falciparum, Erythrocyte; P. falciparum 3D7 in human erythrocytes, 72 h incubation, SYBR green fluorescence; read-out: IC50.
`C[C@H]1C[C@@H](N2C(=N)N[C@](C)(c3cccc(-c4cccc([C@@H](O)C(F)(F)F)c4)c3Cl)CC2=O)CCO1` (relative stereo) [Example 27, (6S)-6-(2-Chloro-3-{3-[(1R*)-2,2,2-trifluoro-1-hydroxyethyl]-phenyl}phenyl)-2-imino-6-methyl-3-[(2S,4S)-2-methyltetrahydro-pyran-4-yl|hexahydropyrimidin-4-one hydrochloride]: the IC50 is 44 nM.
